The results in this text go back to patent US20140194477A1, “KINASE PROTEIN BINDING INHIBITORS” (Roswell Park Cancer Institute, priority 2011, published 2014).

In data set [1] the test system is CD-1 mice. Kind of data set: 28-day multiple-dose toxicologic study, IP, CD-1 mice. The data set is classed as in vivo, mouse. The procedure:
A 28-day, multiple-dose toxicologic study of the chemical 1,2,4,5-Benzenetetramine tetrahydrochloride was performed in CD-1 mice.
• 1,2,4,5-benzenetetramine tetrahydrochloride. The test article was prepared in PBS (physiologic buffered saline). The test article was prepared by the sponsor and delivered to the study director prior to the study. The test article was stored in the freezer (0° C.), protected from light.
• PBS (physiologic buffered saline), • Test System: • The CD-1 [Hsd:ICR(CD-l)] albino mouse was used. The CD-1 mouse is conventionally used in 28 day toxicity tests to provide information on which human hazards can be judged, and is one of the choices of species preferred by regulatory agencies. Mice were obtained from Harlan (Frederick, MD). • Mice were acclimated for 2 days prior to testing. 12 male and 12 female mice, nulliparous and non-pregnant, were used. Normal weight gain, appearance and behavior were factors used to select healthy mice for testing. Only naive animals were used. Mice were 7 weeks old (males) and 9 weeks old (females), weighed 21-26 grams (males) and 17-23 grams (females), and were in good health at the start of the study. Mice were 11 weeks old (males) and 13 weeks old (females), weighed 20-32 grams (males) and 19-26 grams (females) at the conclusion of the study. • Mice were randomly assigned to 4 experimental groups (high-dose, medium-dose, low-dose, and controls) consisting of 3 males and 3 females. Mice were identified via cage cards, tail markings, and ear punch. Mouse identification is summarized in Table 1. • Mice were fed autoclaved Harlan-Teklad sterilizable 7012 mouse/rat diet ad libitum. The feed is routinely analyzed by the manufacturer for nutritional components and environmental contaminants. Tap water acidified to a pH of 2.5-3.5 was provided in autoclaved water bottles ad libitum. Municipal water supply is analyzed by the Bureau Veritas Consumer Product Services of Buffalo, N.Y. on an annual basis. There are no known contaminants in the feed or water provided to the test animals that would be expected to interfere with this study. • Mice were group-housed, 3 to a cage, in autoclaved polycarbonate/polysulfone microisolator cages with autoclaved contact bedding (bed ′o cobs, Anderson's Industrial Products Group). • Environmental conditions in the animal housing room were maintained at an ambient temperature of 70±3°, relative humidity of 30-70%, and a 12:12 light-dark cycle. Animal housing rooms were ventilated with 100% fresh, HEPA filtered air with 10-15 air changes per hour.
• A 28-day multiple-dose toxicology study was performed.
The test article (1,2,4,5-benzenetetramine tetrahydrochloride) was prepared in PBS (the control article) and administered intraperiotoneally (IP) as 20 doses once daily on days 0-4, 7-11, 14-18, and 21-25 in the morning. The compound was diluted so as not to exceed a volume of 0.1 mL.
The test article (1,2,4,5-benzenetetramine tetrahydrochloride) was stored in the freezer (0° C.) and thawed to room temperature prior to injection. Mice were randomly allocated into 4 groups (control, low-dose, medium-dose, and high-dose) consisting of 3 males and 3 females, Dosages were calculated on a “per mouse” basis, not on a mg/kg basis. Mice in the low-dose group received the equivalent of a 15 mg/kg dose for a 20 g mouse (0.3 mg). Mice in the medium-dose group received the equivalent of a 30 mg/kg dose for a 20 g mouse (0.6 mg). Mice in the high-dose group received the equivalent of a 45 mg/kg dose for a 20 g mouse (0.9 mg). Mice in the control group received 0.1 mL of PBS (phosphate-buffered saline). Groups received the following doses, as outlined in table 1: […]

Data set [2] concerns CD-1 mice. Kind of data set: 7-day multiple-dose MTD toxicologic study of Y15, oral gavage, CD-1 mice. The data set is classed as in vivo.
Procedure: (§1) • A 7-day, multiple-dose maximum tolerated dose toxicologic study of the chemical 1,2,4,5-Benzenetetramine tetrahydrochloride (Y15) was performed in CD-1 mice.
(§2) • The chemical 1,2,4,5-Benzenetetramine tetrahydrochloride (Y15) was the test article. Y-15 is a chemical grade compound available through Sigma-Aldrich, The test article was prepared in phosphate buffered saline (PBS). The test article was prepared by the sponsor and delivered to the study director prior to the study. The test article was stored in the freezer (0° C.), protected from light.
(§3) • The CD-1 [Hsd:ICR(CD-1)] albino mouse was used. […] Mice were obtained from Harlan (Frederick, Md.). • Mice were acclimated for a minimum of 2 days prior to testing. 20 male and 20 female mice, nulliparous and non-pregnant, were used. Normal weight gain, appearance and behavior were factors used to select healthy mice for testing. Only naive animals were used. Mice weighed 22-35 grams (males) and 20-27 grams (females), and were in good health at the start of the study. Mice were randomly assigned to 4 experimental groups (controls, low-dose, medium-dose, and high-dose) consisting of 5 males and 5 females. Mice were identified via cage cards, tail markings, and ear punch. Mouse identification codes contained information regarding experimental group (C=control, L=low-dose, M=medium-dose, H=high-dose), sex (M=male, F=female), and animal number (1-5). […] Tap water acidified to a pH of 2.5-3.5 was provided in autoclaved water bottles ad libitum. […] Environmental conditions in the animal housing room were maintained at an ambient temperature of 70±3°, relative humidity of 30-70%, and a 12:12 light-dark cycle. Animal housing rooms were ventilated with 100% fresh, HEPA filtered air with 10-15 air changes per hour.
(§4) A 7-day multiple-dose MTD toxicology study was performed.
(§5) The test article Y-15 was prepared in PBS and administered orally (PO) via orogastric gavage as a single daily dose on days 0-6 in the morning. The test article (Y-15) was diluted with the control article (PBS) so as not to exceed a volume of 100 μL. The test article was stored in the freezer (0° C.) and allowed to thaw and come to room temperature prior to administration. Mice were randomly allocated into 4 groups (controls, low-dose, medium-dose, and high-dose) consisting of 5 males and 5 females. Dosages were calculated on a “per mouse” basis, not on a mg/kg basis. […] Mice in the high-dose group received the equivalent of a 300 mg/kg dose for a 20 g mouse (6 mg). Mice in the control group received 100 μL of the control article (PBS). Groups received the following doses, drug concentrations, and gavage volumes, as outlined in Table 2:
Assay in data set [3]: as above
Procedure: as §1, §2, §3, §4, §5
It is filed as in vivo. The conditions noted are these: both sexes, CD-1, mouse, in vivo, oral gavage in mice, daily for 7 days.

The next data set has as its system cancer cell. Kind of data set: Cancer cell viability in vitro. The data set is classed as cell-based.
Another data set relates to tumor. Kind of data set: Tumor growth in vivo.
For a further data set, the target named is FAK (Homo sapiens, UniProt Q05397). Kind of data set: FAK Y397 phosphorylation. The conditions noted are these: in vitro. The data set is classed as biochemical.
[4] abbreviates: IP, 28-day study, high-dose group.

A word on the NOAEL: it is the highest tested level that showed no adverse finding.

FAK, sequence (Q05397 whole entry): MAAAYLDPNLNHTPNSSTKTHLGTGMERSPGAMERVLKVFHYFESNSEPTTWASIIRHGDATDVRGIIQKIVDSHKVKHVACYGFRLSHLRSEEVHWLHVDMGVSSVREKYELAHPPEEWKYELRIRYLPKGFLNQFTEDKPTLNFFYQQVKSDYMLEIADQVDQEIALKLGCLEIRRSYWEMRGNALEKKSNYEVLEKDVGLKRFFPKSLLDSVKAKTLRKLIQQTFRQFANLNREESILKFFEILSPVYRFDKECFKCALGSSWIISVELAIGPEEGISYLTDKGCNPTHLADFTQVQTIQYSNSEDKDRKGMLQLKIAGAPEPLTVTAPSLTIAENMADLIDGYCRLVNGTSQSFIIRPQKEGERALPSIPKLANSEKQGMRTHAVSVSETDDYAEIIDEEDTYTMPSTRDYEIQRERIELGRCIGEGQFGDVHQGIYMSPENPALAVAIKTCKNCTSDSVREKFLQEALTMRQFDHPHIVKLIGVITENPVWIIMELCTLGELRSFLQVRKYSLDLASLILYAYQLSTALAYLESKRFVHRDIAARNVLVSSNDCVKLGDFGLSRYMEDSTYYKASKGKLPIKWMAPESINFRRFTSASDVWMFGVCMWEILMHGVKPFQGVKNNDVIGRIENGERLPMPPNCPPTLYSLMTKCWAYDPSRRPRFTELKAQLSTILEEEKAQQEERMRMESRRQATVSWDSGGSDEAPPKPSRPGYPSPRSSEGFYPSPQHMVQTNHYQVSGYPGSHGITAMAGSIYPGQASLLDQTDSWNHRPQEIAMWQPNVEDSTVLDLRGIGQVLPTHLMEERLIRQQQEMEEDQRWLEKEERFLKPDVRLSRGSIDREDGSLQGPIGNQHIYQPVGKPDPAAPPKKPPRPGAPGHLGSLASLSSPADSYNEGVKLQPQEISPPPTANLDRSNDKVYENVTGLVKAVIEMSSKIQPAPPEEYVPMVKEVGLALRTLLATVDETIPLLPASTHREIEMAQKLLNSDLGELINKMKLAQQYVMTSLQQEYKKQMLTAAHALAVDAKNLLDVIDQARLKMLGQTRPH

Turning to `Cl.Cl.Cl.Cl.Nc1cc(N)c(N)cc1N` [Y15, 1,2,4,5-benzenetetraamine tetrahydrochloride], in the data set with CD-1 mice [1] (30 mg/kg by ip administration, duration 28 days), the “toxicity (summary statement)” value was “no toxicity”. The pain following injection entry in the data set with CD-1 mice [1] (IP, 20 daily doses over 28 days, 15, 30, 45 mg/kg equivalent) is reported as “pain following injection in all dose groups”. The clinical chemistry changes entry in the data set on CD-1 mice [1] (IP, 28-day study) was “not associated with any changes in clinical chemistry that were statistically and clinically significant”. The “gross and histopathologic findings” value in the data set with CD-1 mice [1] (IP, 28-day study, all dose groups) is “gross and histopathologic peritonitis in mice in all dose groups”. Further, in the data set with CD-1 mice [1] (IP, 28-day study, high dose group (45 mg/kg equivalent)), the mean body weights entry is on record as “statistically significant lowered mean body weights”. Further, in the data set on CD-1 mice [1] (setting [4]), the hematologic changes result is “Some statistically and clinically significant hematologic changes”; the mortality entry was “unexpected mortality in the high-dose group”. For the same molecule, the clinical signs result with CD-1 mice [1] (IP, 28-day study, medium (30 mg/kg) and high (45 mg/kg) dose groups) is “clinical signs consistent with general malaise and peritonitis”. Further, the weight loss entry in the data set on CD-1 mice [1] (IP, 28-day study, medium- and high-dose groups) was “weight loss in the medium- and high-dose groups”. Further, the “maximal tolerated dose (summary statement)” value with CD-1 mice [2] (delivery 5 days/week, duration 7 days) stood at 200 mg/kg. Moreover, the “toxicity findings, medium-dose group” value with CD-1 mice [2] (oral gavage daily days 0-6, 100 mg/kg) is “no mortality, clinical signs of toxicity, or decrement in mean body weight”. For the same molecule, in the data set with CD-1 mice [2] (oral gavage daily days 0-6, 200 mg/kg), the “toxicity findings, high-dose group” value was “weight loss, severe clinical signs of abdominal distention, and mortality due to gastrointestinal dilatation”. The MTD at 7 days in data set [3] is ≥ 100 mg/kg. Besides, the NOAEL at 7 days in data set [3] (read-out: no observable adverse effects level (NOAEL)) worked out at 100 mg/kg. In addition, in the data set with cancer cell, the “cancer cell viability in vitro” value is recorded as “inhibits cancer cell viability in vitro”. The “tumor growth in vivo” value in the data set with tumor is reported as “blocks tumor growth in vivo”. Besides, at FAK, the “Y397-phosphorylation of FAK in vitro” value was “directly and specifically decreases”.
